From paper PMC6584507 (Scientific Reports, 2019)
≈ marks a conversion by molar mass, not a printed value.

Columns and labels:
hTSLP/hTSLPR interaction = target: T1, hTSLP/hTSLPR interaction (Homo sapiens, UniProt Q969D9); test: ELISA of hTSLP/hTSLPR interaction (FLAG-hTSLP, hTSLPR-His); format: binding; conditions: for inhibition at 300 µM / inhibition at 1000 µM: read-out: % inhibition (hTSLP-inhibitory activity by ELISA);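 as to all read-outs here: His-tagged hTSLPR captured on Ni-NTA plates, compounds plus FLAG-hTSLP incubated 18 h at 4 °C, bound ligand detected with HRP anti-FLAG, OD 450 nm relative to control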
T1 construct: human TSLP28–159 with thrombin cleavage site at C-terminus; thrombin cleavage site (C); 8xHis (from vector pAB-bee-8xHis) (C, cleaved yes); made in house; host or cells: Trichoplusia ni High-Five cells, baculovirus (secreted)
T1 sequence (Q969D9 28-159): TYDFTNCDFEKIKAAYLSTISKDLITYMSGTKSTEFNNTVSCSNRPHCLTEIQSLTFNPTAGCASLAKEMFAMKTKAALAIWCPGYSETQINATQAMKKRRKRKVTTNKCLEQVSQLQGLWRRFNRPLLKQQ

[1] = Kinetic aqueous solubility; format: physicochemical; conditions: 0.1 M potassium phosphate buffer, kinetic from dmso stock, PBS / phosphate buffer pH 7.4
Method: In brief, 10 mM stock solution of tested compounds was prepared in DMSO. 25 μL of the stock solution was added to a 1-mL uniprep vial containing 475 μL of 0.1 M potassium phosphate buffer (pH 7.4), and was shaken at 800 rpm for 90 min at room temperature. Following shaking, the mixture was filtered by slowly pressing the upper tube of the 1 mL Mini-Uniprep^TM filter (PTFE membrane, 0.45 μm). 250 μL of the filtrate solution was then transferred to a HPLC vial containing equal volume of acetonitrile.

| Structure (SMILES) | inhibition at 300 µM (hTSLP/hTSLPR interaction; 0.3 mM) [%] | inhibition at 1000 µM (hTSLP/hTSLPR interaction; 1 mM) [%] | other results |
| --- | --- | --- | --- |
| O=C(O)[C@H]1O[C@@H](Oc2cc3oc(-c4ccccc4)cc(=O)c3c(O)c2O)[C@H](O)[C@@H](O)[C@@H]1O [Compound 1a, baicalin] | 12.1 ± 1.8 | 19.9 ± 0.2 |  |
| COc1c(O)cc(O)c2c(=O)cc(-c3ccccc3)oc12 [Compound 1b, wogonin] | < 5 | < 5 |  |
| COc1c(O)cc2oc(-c3ccccc3)cc(=O)c2c1O [Compound 1c, oroxylin A] |  | 11.6 ± 6.3 | % inhibition (hTSLP-inhibitory activity by ELISA) (hTSLP/hTSLPR interaction; 0.3 mM): <5% |
| COc1cccc(O)c1-c1cc(=O)c2c(O)c(OC)c(OC)c(OC)c2o1 [Compound 1d, skullcapflavone II] | < 5 | < 5 |  |
| COc1c(O)ccc(O)c1-c1cc(=O)c2c(O)cc(O)c(OC)c2o1 [Compound 1e, viscidulin III] | 12.8 ± 0.6 | 26.3 |  |
| O=C1CC(c2c(O)cccc2O)Oc2cc(O)cc(O)c21 (stereo not drawn) [Compound 1f, 2′,5,6′,7-tetrahydroflavanone] | 14 ± 3.8 | 8.4 ± 5.8 |  |
| COc1cc2oc(-c3ccccc3)cc(=O)c2c(OC)c1OC [Compound 2] | < 5 | 12 ± 2.8 |  |
| O=c1cc(-c2ccccc2)oc2cc(O)ccc12 [Compound 3a] | 16.4 ± 2.7 | 23.3 ± 6.8 |  |
| O=c1cc(-c2ccccc2)oc2ccc(O)cc12 [Compound 3b] | 22.2 ± 2.5 | 38.7 ± 5.3 |  |
| O=c1cc(-c2ccccc2)oc2cccc(O)c12 [Compound 3c] | 24.1 ± 5.4 | 16.8 ± 2 |  |
| O=c1cc(-c2ccccc2)oc2cc(O)cc(O)c12 [Compound 6a, 5,7-Dihydroxy-2-phenyl-4H-chromen-4-one] |  |  | solubility kinetic at 90 min [1]: 30 µM (≈ 7.63 µg/mL) |
| O=c1cc(-c2ccc(O)cc2)oc2cc(O)cc(O)c12 [Compound 6b, 5,7-Dihydroxy-2-(4-hydroxyphenyl)-4H-chromen-4-one] |  |  | solubility kinetic at 90 min [1]: 486 µM (≈ 131 µg/mL) |
| O=C1CC(c2ccccc2)Oc2cc(O)cc(O)c21 (stereo not drawn) [Compound 7a, 5,7-Dihydroxy-2-phenylchroman-4-one] |  |  | hTSLP-inhibitory activity by ELISA, comparison in words (hTSLP/hTSLPR interaction): weaker; solubility kinetic at 90 min [1]: 111 µM (≈ 28.4 µg/mL) |
| O=C1CC(c2ccc(O)cc2)Oc2cc(O)cc(O)c21 (stereo not drawn) [Compound 7b, 5,7-Dihydroxy-2-(4-hydroxyphenyl)chroman-4-one] |  |  | hTSLP-inhibitory activity by ELISA, comparison in words (hTSLP/hTSLPR interaction): weaker; solubility kinetic at 90 min [1]: 505 µM (≈ 137 µg/mL) |
| O=c1cc(-c2cccc(-c3ccc(O)cc3)c2)oc2cc(O)cc(O)c12 [Compound 10a, 5,7-Dihydroxy-2-(4′-hydroxy-[1,1′-biphenyl]-3-yl)-4H-chromen-4-one] | > 50 |  |  |
| O=c1cc(-c2cccc(-c3ccc([N+](=O)[O-])cc3)c2)oc2cc(O)c(O)cc12 [Compound 10h, 6,7-Dihydroxy-2-(4′-nitro-[1,1′-biphenyl]-3-yl)-4H-chromen-4-one] | > 50 |  |  |
| COc1c(O)cc2oc(-c3ccccc3)cc(=O)c2c1O [KUP-119, oroxylin A] |  |  | % inhibition (hTSLP-inhibitory activity by ELISA) (hTSLP/hTSLPR interaction; 0.3 mM): 1.7 ± 9.0%; % inhibition (hTSLP-inhibitory activity by ELISA) (hTSLP/hTSLPR interaction; 1 mM): 11.6 ± 6.3% |
